Experimental data published in article PMC4774911, “Biochemical Screening of Five Protein Kinases from Plasmodium falciparum against 14,000 Cell-Active Compounds” (PLoS ONE, 2016).
Values joined by “and” are separate entries in the source; they are usually repeats but may differ in a detail not shown here. Equal entries are not always repeated.

What was measured:
Assay in all cases: biochemical
Parameters in all cases: endogenous in cells; host or cells: K562 cell extract; species or system K562 (extract); replicate k of n = 2 (each experiment ID is one independent experiment; two experiment IDs per compound)
Settings in all cases: read-out: KDapp
MAPK8 = MAPK8 (Homo sapiens, UniProt P45983)
Sequence of MAPK8 (P45983 whole entry): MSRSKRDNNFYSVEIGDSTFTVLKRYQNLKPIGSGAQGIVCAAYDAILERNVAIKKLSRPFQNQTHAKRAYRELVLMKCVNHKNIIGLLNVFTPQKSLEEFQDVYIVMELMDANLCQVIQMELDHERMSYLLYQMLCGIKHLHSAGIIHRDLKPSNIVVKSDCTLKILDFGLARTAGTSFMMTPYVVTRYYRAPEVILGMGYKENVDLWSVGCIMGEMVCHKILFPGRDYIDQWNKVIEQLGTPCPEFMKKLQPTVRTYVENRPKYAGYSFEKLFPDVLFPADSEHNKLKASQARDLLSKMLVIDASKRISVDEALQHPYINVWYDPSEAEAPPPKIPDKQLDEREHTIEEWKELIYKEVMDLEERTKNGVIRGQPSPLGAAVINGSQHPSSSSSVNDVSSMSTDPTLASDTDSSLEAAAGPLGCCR

AURKA = biological target: T1, AURKA (Homo sapiens, UniProt O14965)
T1 sequence (O14965 1-403): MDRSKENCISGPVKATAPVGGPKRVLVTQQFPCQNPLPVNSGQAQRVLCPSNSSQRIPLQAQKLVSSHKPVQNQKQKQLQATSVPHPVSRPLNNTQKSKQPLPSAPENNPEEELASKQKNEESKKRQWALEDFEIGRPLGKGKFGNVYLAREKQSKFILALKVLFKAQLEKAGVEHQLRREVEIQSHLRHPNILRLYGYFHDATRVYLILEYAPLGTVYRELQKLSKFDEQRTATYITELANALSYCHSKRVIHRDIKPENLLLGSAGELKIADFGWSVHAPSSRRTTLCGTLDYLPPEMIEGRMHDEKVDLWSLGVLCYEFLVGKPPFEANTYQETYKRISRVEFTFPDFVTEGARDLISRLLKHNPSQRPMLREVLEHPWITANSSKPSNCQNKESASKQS

MAP3K7 = biological target: T2, MAP3K7 (Homo sapiens, UniProt O43318)
T2 sequence (O43318 1-606): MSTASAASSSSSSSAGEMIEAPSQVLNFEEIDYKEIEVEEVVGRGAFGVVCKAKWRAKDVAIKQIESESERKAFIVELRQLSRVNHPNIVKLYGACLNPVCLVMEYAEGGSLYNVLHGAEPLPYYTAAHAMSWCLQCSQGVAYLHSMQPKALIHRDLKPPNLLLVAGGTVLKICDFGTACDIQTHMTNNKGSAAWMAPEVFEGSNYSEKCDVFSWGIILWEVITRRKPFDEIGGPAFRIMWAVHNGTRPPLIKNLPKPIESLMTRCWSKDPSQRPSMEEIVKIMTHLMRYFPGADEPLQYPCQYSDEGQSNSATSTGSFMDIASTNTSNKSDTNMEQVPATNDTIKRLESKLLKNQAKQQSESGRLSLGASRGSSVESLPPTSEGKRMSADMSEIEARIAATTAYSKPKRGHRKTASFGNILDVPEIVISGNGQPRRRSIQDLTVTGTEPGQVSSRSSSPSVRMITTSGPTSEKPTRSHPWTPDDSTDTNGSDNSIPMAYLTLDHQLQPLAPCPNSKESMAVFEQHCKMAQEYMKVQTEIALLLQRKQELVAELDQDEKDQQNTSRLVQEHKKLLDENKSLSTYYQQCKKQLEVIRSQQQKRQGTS

NEK9 = biological target: T3, NEK9 (Homo sapiens, UniProt Q8TD19)
T3 sequence (Q8TD19 1-979): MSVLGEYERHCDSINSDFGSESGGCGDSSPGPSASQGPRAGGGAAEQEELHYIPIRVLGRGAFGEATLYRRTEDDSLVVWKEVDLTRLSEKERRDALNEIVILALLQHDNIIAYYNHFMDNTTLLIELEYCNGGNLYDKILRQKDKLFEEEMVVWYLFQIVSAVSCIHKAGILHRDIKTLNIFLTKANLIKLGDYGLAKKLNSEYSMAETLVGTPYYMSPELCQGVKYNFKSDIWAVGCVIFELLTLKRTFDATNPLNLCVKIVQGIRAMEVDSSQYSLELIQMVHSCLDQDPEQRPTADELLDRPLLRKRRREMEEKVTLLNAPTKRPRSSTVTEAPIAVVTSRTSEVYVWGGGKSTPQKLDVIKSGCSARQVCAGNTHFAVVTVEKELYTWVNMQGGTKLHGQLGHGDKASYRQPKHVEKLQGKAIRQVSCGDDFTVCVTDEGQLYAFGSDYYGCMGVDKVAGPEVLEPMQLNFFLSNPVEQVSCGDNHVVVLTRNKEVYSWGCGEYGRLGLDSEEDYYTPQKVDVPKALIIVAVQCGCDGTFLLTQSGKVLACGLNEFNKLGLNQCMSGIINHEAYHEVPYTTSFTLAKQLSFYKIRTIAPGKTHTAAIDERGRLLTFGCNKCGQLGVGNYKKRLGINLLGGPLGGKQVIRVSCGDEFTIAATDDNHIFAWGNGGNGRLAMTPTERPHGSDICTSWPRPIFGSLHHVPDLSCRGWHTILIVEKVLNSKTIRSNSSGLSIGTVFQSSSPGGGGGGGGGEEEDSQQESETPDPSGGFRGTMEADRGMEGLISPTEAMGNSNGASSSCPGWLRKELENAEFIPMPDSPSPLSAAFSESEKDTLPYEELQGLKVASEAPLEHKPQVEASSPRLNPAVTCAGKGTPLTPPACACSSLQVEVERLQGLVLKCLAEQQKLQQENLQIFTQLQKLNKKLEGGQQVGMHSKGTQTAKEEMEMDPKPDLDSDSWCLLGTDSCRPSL

MAST3 = MAST3 (Homo sapiens, UniProt O60307)
Sequence of MAST3 (O60307 whole entry): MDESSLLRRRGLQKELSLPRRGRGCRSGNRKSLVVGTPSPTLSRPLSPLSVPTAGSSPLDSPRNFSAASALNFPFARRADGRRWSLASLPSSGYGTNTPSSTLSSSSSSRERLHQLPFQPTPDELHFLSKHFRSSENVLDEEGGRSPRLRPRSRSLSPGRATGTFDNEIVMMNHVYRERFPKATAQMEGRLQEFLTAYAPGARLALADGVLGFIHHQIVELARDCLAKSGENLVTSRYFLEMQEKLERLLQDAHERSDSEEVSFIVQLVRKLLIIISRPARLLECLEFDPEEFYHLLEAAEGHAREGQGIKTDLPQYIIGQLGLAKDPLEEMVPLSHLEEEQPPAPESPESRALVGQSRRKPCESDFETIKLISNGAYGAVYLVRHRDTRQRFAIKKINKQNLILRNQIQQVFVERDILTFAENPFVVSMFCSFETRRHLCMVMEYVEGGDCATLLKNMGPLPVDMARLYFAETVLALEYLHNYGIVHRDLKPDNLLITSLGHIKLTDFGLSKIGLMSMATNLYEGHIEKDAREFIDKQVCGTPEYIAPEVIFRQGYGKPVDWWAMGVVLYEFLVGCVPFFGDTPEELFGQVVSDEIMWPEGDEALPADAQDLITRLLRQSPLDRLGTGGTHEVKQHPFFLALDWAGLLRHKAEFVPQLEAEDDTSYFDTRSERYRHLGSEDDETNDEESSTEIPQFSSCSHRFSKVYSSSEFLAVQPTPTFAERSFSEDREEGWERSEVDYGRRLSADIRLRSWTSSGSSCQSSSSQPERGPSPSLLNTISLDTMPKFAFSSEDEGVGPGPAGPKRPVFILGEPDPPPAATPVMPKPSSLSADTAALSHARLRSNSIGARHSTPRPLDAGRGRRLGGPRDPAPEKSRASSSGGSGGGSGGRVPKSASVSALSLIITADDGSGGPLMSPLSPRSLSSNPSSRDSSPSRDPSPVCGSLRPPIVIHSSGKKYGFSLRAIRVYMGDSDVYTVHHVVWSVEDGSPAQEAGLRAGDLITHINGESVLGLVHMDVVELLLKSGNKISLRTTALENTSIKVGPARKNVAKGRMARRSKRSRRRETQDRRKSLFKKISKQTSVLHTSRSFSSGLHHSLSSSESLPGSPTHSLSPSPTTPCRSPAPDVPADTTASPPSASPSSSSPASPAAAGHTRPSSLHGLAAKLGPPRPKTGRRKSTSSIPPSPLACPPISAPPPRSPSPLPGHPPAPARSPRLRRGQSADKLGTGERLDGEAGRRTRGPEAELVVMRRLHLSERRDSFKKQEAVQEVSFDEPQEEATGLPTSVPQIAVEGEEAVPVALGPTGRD

SMILES: CN1CCN(c2ccc(Nc3ncc(C#N)c(Nc4ccccc4C(N)=O)n3)cc2)CC1.Cl [TCMDC-134116]
- Kd (MAPK8): 363 nM and 1230 nM
- Kd (AURKA): 12.3 nM
- Kd (MAP3K7): 1470 nM and 808 nM
- Kd (NEK9): 396 nM and 299 nM
- Kd (MAST3): 73.1 nM
